# No end group written: not given here.
# What was measured:
# OsPEPR1 = assay: Medium alkalinization of transgenic tobacco cells expressing OsPEPR1; format: cell-based, rice
# Description: (§1) We identified rice homologues of AtPEPR1 in the Rice Annotation Project database (see the website located at www.rapdb.dna.affrc.go.jp). The rice homologues, OsPEPR1 (Os08g0446200) and OsPEPR2 (Os08g0446400), have 60% and 62% amino acid similarities, respectively. The OsPEPR1 has 26 LRRs in the extracellular region, which is the same as AtPEPR1. The OsPEPR2 has a shorter extracellular region with 22 LRRs. Transgenic tobacco cells expressing either OsPEPR1 or OsPEPR2 were created to examine the possibility of receptor binding to monocot peptides. OsPep3a, OsPep3b, OsPep3c, ZmPep1 and ZmPep4a were supplied to suspension cultured transgenic tobacco cells, and medium pH was measured. OsPep3a, OsPep3b, ZmPep1 and ZmPep4a caused medium alkalinization in OsPEPR1 expressing cells with a 1.2 pH unit increase and a half-maximal activity of 0.25 nM.
# OsPEPR2 = assay: Medium alkalinization of transgenic tobacco cells expressing OsPEPR2; format: cell-based, rice
# Description: as §1
# AtPEPR1 = biological target: T1, AtPEPR1 (Arabidopsis thaliana, UniProt Q9SSL9); assay: Medium alkalinization of transgenic tobacco cells expressing AtPEPR1; format: cell-based
# T1 construct: Tobacco cells were transformed with a CaMV-35S-AtPEPR1 gene; expressed in transfected cells; host or cells: tobacco suspension-cultured cells (Agrobacterium-mediated, CaMV 35S promoter)
# T1 sequence (Q9SSL9 29-1123): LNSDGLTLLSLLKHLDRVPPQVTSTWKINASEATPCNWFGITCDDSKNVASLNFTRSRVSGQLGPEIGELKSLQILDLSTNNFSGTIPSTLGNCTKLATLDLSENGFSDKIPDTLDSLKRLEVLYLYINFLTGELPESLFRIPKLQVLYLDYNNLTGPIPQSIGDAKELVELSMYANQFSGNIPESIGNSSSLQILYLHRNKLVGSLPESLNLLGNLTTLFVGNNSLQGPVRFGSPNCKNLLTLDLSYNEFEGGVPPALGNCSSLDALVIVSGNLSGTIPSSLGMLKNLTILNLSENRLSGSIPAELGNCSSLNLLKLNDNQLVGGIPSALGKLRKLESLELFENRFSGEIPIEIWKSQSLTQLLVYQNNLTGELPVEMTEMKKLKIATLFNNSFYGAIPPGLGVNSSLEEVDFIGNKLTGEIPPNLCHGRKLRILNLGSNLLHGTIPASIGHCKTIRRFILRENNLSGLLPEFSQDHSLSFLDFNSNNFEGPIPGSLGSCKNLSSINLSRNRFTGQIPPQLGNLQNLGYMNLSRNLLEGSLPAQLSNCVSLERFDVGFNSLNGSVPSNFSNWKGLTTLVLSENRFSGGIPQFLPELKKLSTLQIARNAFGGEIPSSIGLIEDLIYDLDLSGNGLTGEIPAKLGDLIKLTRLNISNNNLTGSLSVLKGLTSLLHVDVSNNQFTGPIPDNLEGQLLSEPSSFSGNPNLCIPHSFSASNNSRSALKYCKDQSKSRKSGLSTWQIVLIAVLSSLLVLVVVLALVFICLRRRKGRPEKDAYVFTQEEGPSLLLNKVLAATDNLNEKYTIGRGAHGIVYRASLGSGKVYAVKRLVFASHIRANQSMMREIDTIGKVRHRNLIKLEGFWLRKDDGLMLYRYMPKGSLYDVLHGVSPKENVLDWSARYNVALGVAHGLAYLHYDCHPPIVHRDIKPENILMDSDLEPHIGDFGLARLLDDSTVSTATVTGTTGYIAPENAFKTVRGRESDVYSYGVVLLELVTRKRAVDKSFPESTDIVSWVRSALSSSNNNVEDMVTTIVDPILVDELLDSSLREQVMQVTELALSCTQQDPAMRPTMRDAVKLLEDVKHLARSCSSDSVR
# Description: Tobacco cells were transformed with a CaMV-35S-AtPEPR1 gene to determine whether the foreign receptor protein was targeted to the cell surface, where, in response to AtPep1, it would activate intracellular signaling to effect the alkalinization of the medium of the transgenic tobacco cells. Expression of the AtPEPR1 gene was confirmed by RT-PCR analysis of RNA from three independently transformed tobacco cell lines. […] AtPep2-7 was also supplied to the transgenic tobacco cells expressing AtPEPR1.
# (§2) To clarify whether AtPEPR2 binds to AtPep1, the AtPEPR2 coding region was fused to the CaMV 35S promoter and introduced into tobacco suspension-cultured cells by Agrobacterium. Tobacco cells expressing AtPEPR1 and GUS genes were also created as positive and negative controls, respectively. […] These transgenic lines were analyzed for alkalinizing activity as previously described (Pearce et al., Proc. Natl. Acad. Sci. USA 98, 12843-12847, 2001).
# (§3) The response to all AtPep peptides in transgenic tobacco cells expressing either AtPEPR1 or AtPEPR2 was analyzed by the medium alkalinization assay.
# [1] = system: AtPEPR1 and AtPEPR2 transcripts; assay: Expression analysis of AtPEPR1 and AtPEPR2 (Northern hybridization, quantitative RT-PCR); format: in vivo, Arabidopsis thaliana; details: within 30 min
# Procedure: Expression analysis of AtPEPR1 and AtPEPR2. […] In order to elucidate the role of AtPEPR2 in AtPeps signal transduction, the gene expression patterns were analyzed in comparison with AtPEPR1.
# [2] = system: AtproPep1 gene expression; assay: Hormone treatments of intact plants, RT-PCR of AtproPep1 and paralogs; format: in vivo, Arabidopsis thaliana; details: for expression of AtproPep1 paralogs after spraying: At5g64905, At5g64900, At5g64890, At5g09980; for expression of the AtproPep1 gene in intact plants: sprayed: MeJA 250 μM, ethephon 7 mM, within an hour
# Procedure: Plant stress and hormone treatments. To examine effects of cold stress, plants were placed in a refrigerated growth chamber set to 2° C. To simulate drought stress conditions, plants grown under standard growth chamber conditions were grown without watering. Methyl jasmonate (Bedoukian Research Inc., Danbury Conn.) was applied as a 625 μM solution in 0.1% Triton X-100 to the upper surface of leaves and the plants were incubated in plexiglass boxes. Methyl salicylate (Sigma-Aldrich, St. Louis Mo.), was applied to leaf surfaces at 2 mM in a 0.1% Triton X-100 solution. Ethephon (Phytotechnology Laboratories, Shawnee Mission Kans.) was sprayed on plants as a 7 mM solution in 0.1% Triton X-100 (Sigma-Aldrich, St. Louis Mo.). ABA effects were analyzed by spraying plants with a 100 μM solution (mixed isomer, Sigma-Aldrich, St. Louis Mo.) in 0.1% Triton X-100 (Denekamp and Smeekens, Plant Physiol. 132, 1415-1423, 2003).
# Semi-quantitative RT-PCR analysis of relative gene expression levels. RNA was isolated using Trizol reagent and manufacturer's instructions (Invitrogen. Carlsbad Calif.), and 2 μg of RNA template was reverse transcribed with a RETROscript kit (Ambion, Austin Tex.). PCR reactions were carried out with ExTaq Hot Start polymerase and reagents (Fisher Scientific, Pittsburgh Pa.). The AtproPep1 forward and reverse primers with the respective sequences of 5′ […] 3′ (SEQ ID NO: 59) and 5′ […] 3′ (SEQ ID NO: 60) generated a 310 bp intron-spanning product. Primers to β-tubulin (At5g62690) of 5′ […] 3′ (SEQ ID NO: 73) and 5′ […] 3′ (SEQ ID NO: 74) generated a 681 base pair intron-spanning product. An initial denaturing/polymerase activating step of 5 minutes at 94° C. was followed by 31 repetitions of the following three steps: a thirty second denaturation phase at 94° C., a thirty second annealing period at 55.5° C., and a one minute elongation step at 72° C. The amplification program was terminated with a 10 minute final 72° C. elongation phase.
# Expression analysis of AtproPep1 in response to abiotic and biotic cues. As a first step in seeking a possible function for AtproPep1 and its encoded peptide, the basal expression level of the gene was assessed in leaves, stems, roots and flowers of Arabidopsis plants was studied using semi-quantitative RT-PCR analysis of AtproPep1 gene expression in response to treatment of leaves with MeJA, ethephon, MeSA, and AtPep1. The relative abundance of the proAtPep1 transcript was estimated from the expression of the β-tubulin gene as a control. Leaves were wounded by crushing once across the mid-vein with a hemostat. Plants were sprayed with a 250 μM solution of MeJA in 0.1% Triton X-100; with a […] solution of MeSA in 0.1% Triton X-100 or with a 7 mM solution of ethephon in 0.1% Triton X-100. […] Total RNA was extracted and analyzed.
# AtPEPR2 = biological target: T2, AtPEPR2 (Arabidopsis thaliana, UniProt Q9FZ59); assay: Medium alkalinization of transgenic tobacco cells expressing AtPEPR2; format: cell-based
# T2 construct: the AtPEPR2 coding region was fused to the CaMV 35S promoter and introduced into tobacco suspension-cultured cells; expressed in transfected cells; host or cells: tobacco suspension-cultured cells, transformed by Agrobacterium, kanamycin-selected
# T2 sequence (Q9FZ59 27-1088): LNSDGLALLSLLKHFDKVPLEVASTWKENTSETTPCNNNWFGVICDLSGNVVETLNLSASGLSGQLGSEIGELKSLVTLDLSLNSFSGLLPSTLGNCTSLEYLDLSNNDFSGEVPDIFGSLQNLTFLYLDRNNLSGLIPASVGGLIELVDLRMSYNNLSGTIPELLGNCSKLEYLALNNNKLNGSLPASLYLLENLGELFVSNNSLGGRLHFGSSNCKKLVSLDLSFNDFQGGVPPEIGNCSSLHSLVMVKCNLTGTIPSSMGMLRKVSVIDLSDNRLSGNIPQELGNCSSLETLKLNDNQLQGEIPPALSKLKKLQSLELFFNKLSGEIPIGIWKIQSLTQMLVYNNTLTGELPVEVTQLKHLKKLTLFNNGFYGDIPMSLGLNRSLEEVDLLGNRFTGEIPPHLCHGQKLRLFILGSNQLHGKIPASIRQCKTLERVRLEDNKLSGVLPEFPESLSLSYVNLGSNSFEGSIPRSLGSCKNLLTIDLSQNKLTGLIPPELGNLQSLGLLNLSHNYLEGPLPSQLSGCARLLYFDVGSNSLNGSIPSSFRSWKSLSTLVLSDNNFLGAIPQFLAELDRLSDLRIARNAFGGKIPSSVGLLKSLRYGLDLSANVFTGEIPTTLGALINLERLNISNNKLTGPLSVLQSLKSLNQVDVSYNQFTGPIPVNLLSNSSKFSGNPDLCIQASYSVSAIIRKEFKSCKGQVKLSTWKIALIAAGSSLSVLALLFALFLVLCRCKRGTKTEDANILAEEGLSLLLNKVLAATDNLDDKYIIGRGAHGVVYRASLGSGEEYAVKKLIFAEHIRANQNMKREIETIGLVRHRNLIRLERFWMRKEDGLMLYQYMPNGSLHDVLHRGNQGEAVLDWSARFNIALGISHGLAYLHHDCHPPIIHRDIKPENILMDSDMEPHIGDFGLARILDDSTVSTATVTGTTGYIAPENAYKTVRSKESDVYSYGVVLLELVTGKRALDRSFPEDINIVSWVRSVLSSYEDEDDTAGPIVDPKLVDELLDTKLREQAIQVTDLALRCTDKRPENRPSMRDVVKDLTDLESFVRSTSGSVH
# Procedure: as §2, §3
# [3] = system: GmPROPEP and soybean defense-related gene expression; assay: Soybean gene expression by semi-quantitative RT-PCR; format: in vivo
# Procedure: Precursor gene expression of soybean homologues of the AtPep peptide, GmPROPEP1, GmPROPEP2 and GmPROPEP3, were analyzed by semi-quantitative RT-PCR. GmPROPEP2 and GmPROPEP3 were expressed in leaves, stems and roots. GmPROPEP1 was expressed mainly in roots, and very weakly in leaves and stems. The transcripts of GmPROPEP1 increased 4-fold 1 hour after supplying MeJA and 3-fold 8 hours after wounding. The transcripts of GmPROPEP2 increased 5-fold 2 hours after supplying MeJA. GmPep1-3 also affected the precursor gene expression. The GmPROPEP1 was induced by infiltration of GmPep1-3 (50 nM), and GmPROPEP2 was induced by GmPep2 (50 nM) and GmPep3 (50 nM) infiltration.
# To examine whether GmPep1-3 are involved in defense responses, expression of soybean defense-related genes were analyzed by semi-quantitative RT-PCR after GmPep1-3 infiltration. The transcripts of D6aH/CYP93a1, a biosynthetic enzyme of the soybean phytoalexin glyceollin (Schopfer et al., FEBS Lett. 432: […], 1998), were induced 2 to 3-fold by GmPep1-3 infiltration.
# Sequence of OsPEPR2 (as listed by the source): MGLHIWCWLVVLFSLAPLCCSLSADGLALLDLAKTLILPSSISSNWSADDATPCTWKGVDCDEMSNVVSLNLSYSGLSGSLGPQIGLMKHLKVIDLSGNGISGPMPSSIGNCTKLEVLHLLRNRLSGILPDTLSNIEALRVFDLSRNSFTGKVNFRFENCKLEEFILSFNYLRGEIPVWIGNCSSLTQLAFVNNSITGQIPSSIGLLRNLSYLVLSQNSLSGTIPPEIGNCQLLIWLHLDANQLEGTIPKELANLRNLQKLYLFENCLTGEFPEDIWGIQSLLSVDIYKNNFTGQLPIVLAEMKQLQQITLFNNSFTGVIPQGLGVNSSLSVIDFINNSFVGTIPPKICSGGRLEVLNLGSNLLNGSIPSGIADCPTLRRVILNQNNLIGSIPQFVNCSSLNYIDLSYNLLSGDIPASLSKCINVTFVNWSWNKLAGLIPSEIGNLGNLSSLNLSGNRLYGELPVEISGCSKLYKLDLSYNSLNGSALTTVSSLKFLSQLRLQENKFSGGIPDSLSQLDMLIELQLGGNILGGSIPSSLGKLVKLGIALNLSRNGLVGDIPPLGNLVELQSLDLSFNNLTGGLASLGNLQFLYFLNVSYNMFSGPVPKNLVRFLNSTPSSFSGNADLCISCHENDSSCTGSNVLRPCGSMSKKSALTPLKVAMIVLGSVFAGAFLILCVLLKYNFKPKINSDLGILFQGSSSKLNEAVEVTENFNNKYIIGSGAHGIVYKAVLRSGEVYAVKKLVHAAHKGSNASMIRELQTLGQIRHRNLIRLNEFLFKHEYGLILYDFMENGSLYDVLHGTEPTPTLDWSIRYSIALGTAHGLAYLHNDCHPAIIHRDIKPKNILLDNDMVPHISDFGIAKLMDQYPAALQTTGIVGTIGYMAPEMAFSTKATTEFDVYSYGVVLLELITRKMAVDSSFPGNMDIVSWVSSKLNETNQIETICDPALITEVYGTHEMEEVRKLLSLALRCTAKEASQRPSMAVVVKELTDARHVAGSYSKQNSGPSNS
# Sequence of OsPEPR1 (as listed by the source): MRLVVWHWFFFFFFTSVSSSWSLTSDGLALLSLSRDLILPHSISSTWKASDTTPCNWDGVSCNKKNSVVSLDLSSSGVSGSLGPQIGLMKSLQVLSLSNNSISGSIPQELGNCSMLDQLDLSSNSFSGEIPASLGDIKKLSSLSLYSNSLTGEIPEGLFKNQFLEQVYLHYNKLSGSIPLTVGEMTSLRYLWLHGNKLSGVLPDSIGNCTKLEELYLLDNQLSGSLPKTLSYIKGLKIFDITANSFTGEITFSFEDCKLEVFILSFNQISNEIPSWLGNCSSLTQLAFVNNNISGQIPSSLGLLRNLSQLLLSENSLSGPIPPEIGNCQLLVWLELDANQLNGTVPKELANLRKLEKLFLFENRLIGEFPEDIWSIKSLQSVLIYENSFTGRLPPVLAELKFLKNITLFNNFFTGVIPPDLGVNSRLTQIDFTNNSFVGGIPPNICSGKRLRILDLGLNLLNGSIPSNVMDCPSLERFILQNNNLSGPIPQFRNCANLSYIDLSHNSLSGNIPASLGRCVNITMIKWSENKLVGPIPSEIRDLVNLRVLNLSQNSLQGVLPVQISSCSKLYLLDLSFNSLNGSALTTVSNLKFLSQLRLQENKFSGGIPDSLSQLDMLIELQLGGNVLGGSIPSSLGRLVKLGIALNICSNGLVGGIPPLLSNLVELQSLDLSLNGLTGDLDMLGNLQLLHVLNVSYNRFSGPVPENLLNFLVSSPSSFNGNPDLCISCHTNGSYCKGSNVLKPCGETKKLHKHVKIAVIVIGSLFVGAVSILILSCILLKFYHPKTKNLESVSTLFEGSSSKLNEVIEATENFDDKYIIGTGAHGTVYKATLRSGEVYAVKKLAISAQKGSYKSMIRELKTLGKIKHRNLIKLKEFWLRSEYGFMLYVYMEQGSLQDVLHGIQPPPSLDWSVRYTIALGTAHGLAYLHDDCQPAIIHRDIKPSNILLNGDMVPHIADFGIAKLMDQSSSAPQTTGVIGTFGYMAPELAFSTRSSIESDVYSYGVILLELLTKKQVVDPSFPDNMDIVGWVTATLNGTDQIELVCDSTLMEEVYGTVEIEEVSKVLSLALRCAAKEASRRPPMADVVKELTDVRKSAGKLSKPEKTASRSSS
molecule,measurement,setting,value
SLAGANVLVRDAPPETGGGPHHN (SLAGANVLVRDAPPETGGGPHHN) [OsPep3c],medium alkalinization activity,OsPEPR1,did not show any activity
same,medium alkalinization activity,OsPEPR2,weak activity
same,medium pH increase,OsPEPR2; peptide at 250 nM,0.5 pH unit
"EIKARGKNKTKPTPSSGKGGKHN [AtPep3, DNKAKSKKRDKEKPSSGRPGQTN]",maximal change,AtPEPR1; AtPEPR1 expressing tobacco cells,1.2 pH units
same,induction of AtPEPR1 and AtPEPR2 transcripts,[1],strong inducer
"COC(=O)c1ccccc1O [MeSA, methyl salicylate, reference compound]",expression of AtproPep1 paralogs after spraying,[2],strongly induced only two of the genes
"SLNVMRKGIRKQPVSSGKRGGVN [AtPep2, SLNVMRKGIRKQPVSSGKRGGVN]",EC50,AtPEPR1,~250 pM
same,EC50,AtPEPR2,~250 pM
"CC/C=C\CC1C(=O)CCC1CC(=O)OC (centres unmarked) [MeJA, methyl jasmonate]",expression of AtproPep1 paralogs after spraying,[2],expressed relatively strongly
same,expression of the AtproPep1 gene in intact plants,[2],induced a strong expression
same,induction of AtPEPR1 and AtPEPR2 transcripts,[1],induced
same,increase of GmPROPEP1 transcripts,[3]; 1 hour after supplying,4 fold
same,increase of GmPROPEP2 transcripts,[3]; 2 hours after supplying,5 fold
O=P(O)(O)CCCl [ethephon],expression of the AtproPep1 gene in intact plants,[2],induced a strong expression
